The conditions of series [1]: cited from earlier work.
Series [2] in a line: Solubility assay in DI water. The format is physicochemical. The note with it: thermodynamic from solid, HCl salts, visual, stepwise dilution from 200 mg/mL, sonication and vortex. How it is done:
In order to determine the aqueous solubility of the compounds indicated, the HCl salts of the following compounds were incubated at 200 mg/mL in DI water followed by sonication for 60 seconds and then vortex stirring for 60 seconds. If insoluble material was observed, the sample was diluted to 150, 100, 50, 25, or 20 mg/mL until no insoluble material was observed. After each dilution, each sample was sonicated for 60 seconds, vortexed for 60 seconds and let equilibrate with occasional shaking for 30 minutes.

Series [3] deals with T1, human TRPM8 receptor expressed in transfected 293H cells (Homo sapiens, UniProt Q7Z2W7).
T1 construct: expressed in transfected cells; host or cells: 293H cells
T1 sequence (Q7Z2W7 whole entry): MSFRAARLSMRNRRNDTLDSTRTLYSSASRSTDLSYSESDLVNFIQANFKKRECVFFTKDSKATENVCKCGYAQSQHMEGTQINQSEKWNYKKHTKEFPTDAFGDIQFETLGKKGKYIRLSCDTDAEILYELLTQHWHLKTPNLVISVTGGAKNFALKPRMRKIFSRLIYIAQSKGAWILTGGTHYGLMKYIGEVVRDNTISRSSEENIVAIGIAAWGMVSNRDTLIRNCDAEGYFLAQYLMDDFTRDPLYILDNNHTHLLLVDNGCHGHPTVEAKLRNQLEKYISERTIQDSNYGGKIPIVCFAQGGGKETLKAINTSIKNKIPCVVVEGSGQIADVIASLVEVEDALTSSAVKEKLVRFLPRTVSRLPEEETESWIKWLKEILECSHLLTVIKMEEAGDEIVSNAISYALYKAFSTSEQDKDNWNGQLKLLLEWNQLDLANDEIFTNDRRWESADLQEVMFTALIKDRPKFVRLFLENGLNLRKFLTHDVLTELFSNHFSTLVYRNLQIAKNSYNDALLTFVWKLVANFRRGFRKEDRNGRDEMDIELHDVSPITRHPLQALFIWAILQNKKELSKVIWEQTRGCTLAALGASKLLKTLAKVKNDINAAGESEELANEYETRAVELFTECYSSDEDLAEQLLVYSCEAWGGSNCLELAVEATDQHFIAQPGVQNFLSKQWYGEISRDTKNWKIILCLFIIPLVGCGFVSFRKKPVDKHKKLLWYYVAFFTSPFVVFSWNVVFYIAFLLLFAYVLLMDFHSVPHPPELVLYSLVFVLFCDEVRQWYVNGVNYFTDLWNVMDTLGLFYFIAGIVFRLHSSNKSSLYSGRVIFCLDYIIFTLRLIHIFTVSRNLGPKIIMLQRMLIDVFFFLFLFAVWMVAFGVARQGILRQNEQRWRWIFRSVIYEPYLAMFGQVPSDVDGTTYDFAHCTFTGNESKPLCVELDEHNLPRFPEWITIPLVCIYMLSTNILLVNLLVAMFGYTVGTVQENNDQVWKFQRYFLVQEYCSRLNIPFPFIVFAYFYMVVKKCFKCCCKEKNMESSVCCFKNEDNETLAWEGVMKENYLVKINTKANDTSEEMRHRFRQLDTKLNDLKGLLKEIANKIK
Briefly: TRPM8 Human Transient Potential Ion Channel Cell Based Agonist Calcium Flux Assay (FLIPR). An excerpt:
This example discloses results from TRPM8 Human Transient Potential Ion Channel Cell Based Agonist Calcium Flux Assay. Evaluation of the agonist activity of compounds at the human TRPM8 receptor expressed in transfected 293H cells, determined by measuring their effect on cytosolic Ca2+ ion mobilization using a fluorometric detection method.
Protocol: The cells are suspended in DMEM buffer (Invitrogen), then distributed in microplates at a density of 3×10^4 cells/well. The fluorescent probe (Fluo4 Direct, Invitrogen) in HBSS buffer (Invitrogen) complemented with 20 mM Hepes (Invitrogen) (pH 7.4) is then added into each well and equilibrated with the cells for 60 min at 37° C. then 15 min at 22° C. Thereafter, the assay plates are positioned in a microplate reader (CellLux, PerkinElmer) which is used for the addition of the test compound, reference agonist or HBSS buffer (basal control), and the measurements of changes in fluorescence intensity which varies proportionally to the free cytosolic Ca2+ ion concentration. For stimulated control measurements, Icilin at 3 μM is added in separate assay wells. The results are expressed as a percent of the control response to 3 μM icilin. The standard reference agonist is Icilin, which is tested in each experiment at several concentrations to generate a concentration-response curve from which its EC50 value is calculated. (Behrendt, H. J., Germann, T., Gillen, C and Hatt, H. and Jostock, R. (2004), Characterization of the mouse cold-menthol receptor TRPM8 and vanilloid receptor type-1 VR1 using a fluorometric imaging plate reader (FLIPR) assay, Br. J. Pharmacol., 141: 737.)
Data analysis: EC50 values were determined as the concentration of test substance required to produce half-maximal increases in [Ca^2+]. Maximal [Ca^2+] responses were measured as peak fluorescence intensity (FI) minus basal FI, and expressed as percentages of the maximum response to icilin. Data are given as means±s.e.m., unless otherwise stated.
The EC50 values (concentration producing a half-maximal response) and IC50 values (concentration causing a half-maximal inhibition of the control agonist response) were determined by non-linear regression analysis of the concentration-response curves generated with mean replicate values using Hill equation curve fitting:
where Y=response, A=left asymptote of the curve, D=right asymptote of the curve, C=compound concentration, and C50=EC50, and nH=slope factor.
A general note: Calcium flux is commonly read through the fluorescence of an indicator in the cells.

Series [4] is described as follows: Solution state stability assay. The note with it: 50° C.; for % degradation at 28 days: HPLC. Type of series: physicochemical. The protocol:
Compounds were incubated in the buffer media indicated (ingredients for making of PBS buffer and sodium citrate/citric acid buffer were obtained from Sigma-Aldrich, St. Louis, MO, USA). The reactions were conducted at either 50° C. and for 28 days. Samples were collected at specific time points and analyzed for % degradation of the parent compound based on UV/Vis analysis.
Methods: Samples were weighed using a Mettler Toledo XS105 analytical balance (accurate to +/−0.01 mg). Accurate dilutions were made with a P1000, P200, or P20 Gilson Pipetman, or an Eppendorf Maxipettor 1-10 mL pipettor. pH Measurements were made with a Hanna Instruments HI 4222 pH meter and a Hanna instruments HI 1330B micro pH probe. Samples were analyzed via high pressure liquid chromatography using an Agilent series 1100 HPLC instrument with a Grace Alltima column. Chromatograms were manually integrated. Individual chromatograms are assigned an automatic HPLC identification number.
Freshly prepared 1.0 mg/mL solution of each compound listed in Table # was allotted into two-dram clear glass vials. […] The vials were then stored in an oven set to 50° C. At the appropriate time points, the vials were removed from the oven, vortexed for 30 seconds and an aliquot (400 μL) was pipetted into an HPLC vial and quenched with 1% TFA in ACN (400 μL). […] For all samples, aliquots were taken after 28 days. Quenched vials were immediately analyzed via HPLC.

Structures are written as SMILES. Like-named read-outs stand apart in the source and are kept apart here. A value given as a limit tells only on which side of the number the result lay.

`CC(C)[C@@H]1CC[C@@H](C)C[C@H]1O` [menthol, (1R,2S,5R)-2-isopropyl-5-methylcyclohexanol]: the “known aqueous solubility in water” value in series [1] was ~0.4 mg/mL.

The solubility is the dissolved amount per volume that the medium holds. One may read the EC50 as the concentration needed to bring the measured effect to its halfway point. For `CC(C)[C@@H]1CC[C@@H](C)C[C@H]1C(=O)NCc1ccc(CN2CCNCC2)cc1.Cl.Cl` [Compound 15, (1R,2S,5R)-2-isopropyl-5-methyl-N-(4-(piperazin-1-ylmethyl)benzyl)cyclohexanecarboxamide dihydrochloride], the solubility at 30 min in series [2] was ≥ 200 mg/mL. Moreover, in series [3], the EC50 came to 79 nM.

Regarding `CC(C)[C@@H]1CC[C@@H](C)C[C@H]1C(=O)NCc1ccc(CN)cc1.Cl` [Compound 4, (1R,2S,5R)-N-(4-(aminomethyl)benzyl)-2-isopropyl-5-methylcyclohexanecarboxamide hydrochloride], in series [2] (DI water), the solubility at 30 min is ≥ 20 mg/mL. In addition, the EC50 in series [3] (Ca2+ mobilization, fluorometric detection, 293H cells, response relative to 3 μM icilin, read-out: TRPM8 agonist EC50) worked out at 100 nM. Also, the “aqueous stability / hydrolysis, comparison in words” value in series [4] (buffer, 28 days) is listed as “greatest aqueous stability”. The “% degradation at 28 days” value in series [4] (pH = ~5.0 (0.2 M aqueous sodium citrate/citric acid buffer)) was ~7.1%; in series [4] (pH = ~7.4 (1X Phosphate Buffered Saline)), ~1.7%.
